The values that follow come from ChEMBL document CHEMBL3758161, “Synthesis and evaluation of antibacterial and antitumor activities of new galactopyranosylated amino alcohols” (Eur J Med Chem, 2016).

In one data set the test system is M059J. The data set is described as follows: Cytotoxicity against human M059J cells assessed as cell growth inhibition after 24 hrs by XTT assay. It is filed as functional, cell-based.
The test system of data set [1] is Pseudomonas aeruginosa. The data set is described as follows: Bactericidal activity against gram-negative Pseudomonas aeruginosa ATCC 2785 after 24 hrs by broth dilution method. The settings on record: ATCC 2785, 24 h. It is filed as functional.
Data set [2] relates to Escherichia coli. The data set is described as follows: Antibacterial activity against gram-negative Escherichia coli ATCC 11229 at 5 mg/ml incubated overnight by agar well diffusion method. Conditions: read-out: DIZ. It is filed as functional.
Data set [3] concerns MCF7. The data set is described as follows: cells. The settings on record: Homo sapiens, MCF7, 24 h.
Description: Cytotoxicity against human MCF7 cells assessed as cell growth inhibition after 24 hrs by XTT assay
Data set [4] concerns Escherichia coli. Briefly: Bactericidal activity against gram-negative Escherichia coli ATCC 11229 after 24 hrs by broth dilution method. It is filed as functional. Conditions: ATCC 11229, 24 h.
The test system of a further data set is HeLa. The data set is described as follows: Cytotoxicity against human HeLa cells assessed as cell growth inhibition after 24 hrs by XTT assay. It is filed as functional, cell-based.
The subject of data set [5] is Mycobacterium tuberculosis. Briefly: microbe, parasite or virus in culture. The settings on record: H37Rv.
Description: Antibacterial activity against Mycobacterium tuberculosis H37Rv
Data set [6] concerns Staphylococcus epidermidis. The data set is described as follows: Antibacterial activity against gram-positive Staphylococcus epidermidis ATCC 12228 at 5 mg/ml incubated overnight by agar well diffusion method. The settings on record: read-out: DIZ. It is filed as functional.
For data set [7], the system named is Staphylococcus aureus. The data set is described as follows: Antibacterial activity against gram-positive Staphylococcus aureus ATCC 3591 at 5 mg/ml incubated overnight by agar well diffusion method. It is filed as functional. The settings on record: read-out: DIZ.
In data set [8] the test system is MCF7. Briefly: Selectivity index, ratio of IC50 for human GM07492A cells to IC50 for human MCF7 cells. It is filed as functional.
Data set [9] has as its system Staphylococcus epidermidis. The data set is described as follows: Bactericidal activity against gram-positive Staphylococcus epidermidis ATCC 12228 after 24 hrs by broth dilution method. It is filed as functional. Conditions: ATCC 12228, 24 h.
A short description of data set [10]: Lipophilicity, log P of the compound. It is filed as physicochemical. The settings on record: octanol/water.
Data set [11] in a line: Cytotoxicity against human GM07492A cells assessed as cell growth inhibition after 24 hrs by XTT assay. It is filed as cell-based.
In data set [12] the test system is Pseudomonas aeruginosa. Briefly: Antibacterial activity against gram-negative Pseudomonas aeruginosa ATCC 2785 at 5 mg/ml incubated overnight by agar well diffusion method. Conditions: read-out: DIZ. It is filed as functional.
Data set [13] concerns Staphylococcus aureus. The data set is described as follows: Bactericidal activity against gram-positive Staphylococcus aureus ATCC 3591 after 24 hrs by broth dilution method. It is filed as functional. Conditions: ATCC 3591, 24 h.

Regarding `CCCCCCCCCCCCCCNCCNCC(O)COC[C@H]1O[C@@H]2OC(C)(C)O[C@@H]2[C@H]2OC(C)(C)O[C@H]21` (mixture of isomers), the IC50 came to 39.2 µM in the data set with M059J, 39.3 µM with MCF7 [3], 41.5 µM in the data set with HeLa and 24.9 µM in data set [11]. Further, the MBC was above 894 µM with Pseudomonas aeruginosa [1], 445 µM against Escherichia coli [4], 14 µM in data set [9] and 14 µM against Staphylococcus aureus [13]. For the same molecule, the zone of inhibition at 5000 µg/mL stood at 10 mm in the data set on Escherichia coli [2], 20 mm in data set [6], 22 mm in the data set on Staphylococcus aureus [7] and 20 mm in the data set with Pseudomonas aeruginosa [12]. The same molecule had an MIC in data set [5] of 87 µM. Besides, the “Ratio IC50” value with MCF7 [8] is listed as 0.6. In data set [10], the logP was 3.56.
For `CCCCCCCCCCNCCNCC(O)COC[C@H]1O[C@@H]2OC(C)(C)O[C@@H]2[C@H]2OC(C)(C)O[C@H]21` (mixture of isomers), the IC50 in the data set with M059J amounted to 39.2 µM; in the data set on MCF7 [3], 28 µM; in the data set with HeLa, 40.2 µM; in data set [11] it was 63.3 µM. For the same molecule, the MBC was above 990 µM with Pseudomonas aeruginosa [1], above 990 µM with Escherichia coli [4], 8 µM in [9] and 8 µM against Staphylococcus aureus [13]. Further, the zone of inhibition at 5000 µg/mL came out at 16 mm in the data set on Escherichia coli [2], 20 mm in data set [6] and 20 mm in the data set on Staphylococcus aureus [7]. In data set [5], this molecule came in with an MIC of 24 µM. Further, the “Ratio IC50” value with MCF7 [8] was determined as 2.3. In data set [10], this molecule came in with a logP of 3.15.
Take `CCCCCCCCCCCCNCCNCC(O)COC[C@H]1O[C@@H]2OC(C)(C)O[C@@H]2[C@H]2OC(C)(C)O[C@H]21` (mixture of isomers): the 50% inhibitory concentration (IC50) in the data set on M059J was 10 µM; in the data set with MCF7 [3], 11.9 µM; in data set [11], 7.3 µM. Also, the MBC with Pseudomonas aeruginosa [1] is above 940 µM; in the data set on Escherichia coli [4], 235 µM; in [9] it was 15 µM; with Staphylococcus aureus [13], 15 µM. Also, the zone of inhibition at 5000 µg/mL is 10 mm with Escherichia coli [2], 20 mm in data set [6], 30 mm in the data set on Staphylococcus aureus [7] and 20 mm in the data set with Pseudomonas aeruginosa [12]. Further, the MIC in data set [5] was found to be 91 µM. In addition, the “Ratio IC50” value in the data set with MCF7 [8] stood at 0.6. In [10], this molecule yielded a lipophilicity (logP) of 3.99.
With `NC(=O)N/N=C/c1ccc([N+](=O)[O-])o1` [NITROFURAZONE], the zone of inhibition at 5000 µg/mL was 35 mm with Escherichia coli [2], 25 mm in data set [6], 31 mm in the data set on Staphylococcus aureus [7] and 15 mm with Pseudomonas aeruginosa [12].
